Results taken from ChEMBL document CHEMBL1143107 (Bioorg Med Chem, 2008).
pIC50: −log10 of the molar value.

Columns and labels:
Homo sapiens [1] = species on record: Homo sapiens; test: Ratio of IC50 for human COX1 to IC50 for human COX2 in human whole blood; format: tissue-based
[2] = target: T1, Prostaglandin G/H synthase 2 (Homo sapiens, UniProt P35354)
T1 sequence (P35354 whole entry): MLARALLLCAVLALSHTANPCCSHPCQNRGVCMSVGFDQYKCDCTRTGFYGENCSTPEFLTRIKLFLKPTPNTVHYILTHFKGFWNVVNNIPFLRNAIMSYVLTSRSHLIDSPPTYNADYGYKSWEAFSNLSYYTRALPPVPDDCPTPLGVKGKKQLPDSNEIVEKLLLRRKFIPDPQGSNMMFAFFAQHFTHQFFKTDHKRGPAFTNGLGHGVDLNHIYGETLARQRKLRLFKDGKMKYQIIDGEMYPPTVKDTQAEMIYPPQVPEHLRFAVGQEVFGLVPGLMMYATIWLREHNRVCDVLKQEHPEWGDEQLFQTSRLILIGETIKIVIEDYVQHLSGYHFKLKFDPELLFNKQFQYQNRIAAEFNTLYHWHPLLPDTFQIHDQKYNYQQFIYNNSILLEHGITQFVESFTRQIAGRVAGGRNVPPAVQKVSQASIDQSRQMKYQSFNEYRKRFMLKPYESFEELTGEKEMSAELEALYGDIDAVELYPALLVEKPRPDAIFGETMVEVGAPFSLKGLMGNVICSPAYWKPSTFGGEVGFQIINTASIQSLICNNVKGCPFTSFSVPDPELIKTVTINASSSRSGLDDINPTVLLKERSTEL
Description: Inhibition of human COX2 in human whole blood

[3] = target: T1, Prostaglandin G/H synthase 2; remark: listed apart in the source
Homo sapiens [4] = species on record: Homo sapiens; test: Ratio of IC50 for human COX1 to IC50 for human COX2

SMILES | pIC50 [2] | Ratio IC50 (Homo sapiens [4]) | Ratio IC50 (Homo sapiens [1]) | pIC50 [3]
CS(=O)(=O)c1ccc(-c2nc(NCc3ccc(O)cc3)cc(C(F)(F)F)n2)cc1 | – | – | > 158 | –
Cn1cccc1CNc1cc(C(F)(F)F)nc(-c2ccc(S(C)(=O)=O)cc2)n1 | 7.54 | > 562 | > 3470 | 6.75
CCc1c(NCc2ccc(F)cc2)nc(-c2ccc(S(C)(=O)=O)cc2)nc1C(F)(F)F | – | – | > 972 | –
CS(=O)(=O)c1ccc(-c2nc(NCc3ccc(N)cc3)cc(C(F)(F)F)n2)cc1 | – | – | 473 | –
CS(=O)(=O)c1ccc(-c2nc(O)cc(NCc3ccccc3)n2)cc1 | – | – | > 2030 | –
CS(=O)(=O)c1ccc(-c2nc(NCc3cc4ccccc4s3)cc(C(F)(F)F)n2)cc1 | 6.53 | – | – | 8.23
Cc1c(Cl)nc(-c2ccc(S(C)(=O)=O)cc2)nc1NCc1ccc(F)cc1 | – | – | > 145 | –
CC(C)(C)c1cc(NCc2ccccc2)nc(-c2ccc(S(C)(=O)=O)cc2)n1 | – | – | 1060 | –
CS(=O)(=O)c1ccc(-c2nc(Cl)cc(NCc3ccccc3)n2)cc1 | – | – | > 9120 | –
CCS(=O)(=O)c1cc(NCc2cccs2)nc(-c2ccc(S(C)(=O)=O)cc2)n1 | 6.84 | – | 15 | –
Cc1ccccc1CNc1cc(C(F)(F)F)nc(-c2ccc(S(C)(=O)=O)cc2)n1 | – | – | > 17 | –
CC[S+]([O-])c1cc(NCc2cccs2)nc(-c2ccc(S(C)(=O)=O)cc2)n1 (stereo not drawn) | – | – | > 266 | –
CS(=O)(=O)c1ccc(-c2nc(O)cc(NCc3cccs3)n2)cc1 | – | – | > 1260 | –
CS(=O)(=O)c1ccc(-c2nc(SCc3ccccc3)cc(C(F)(F)F)n2)cc1 | 6.28 | – | > 189 | –
CS(=O)(=O)c1ccc(-c2nc(NC3CCCCC3)cc(C(F)(F)F)n2)cc1 | 6.62 | – | – | 6.60
COc1cc(NCc2cccs2)nc(-c2ccc(S(C)(=O)=O)cc2)n1 | – | – | > 22000 | –
CN(Cc1ccccc1)c1cc(C(F)(F)F)nc(-c2ccc(S(C)(=O)=O)cc2)n1 | – | – | 22 | –
CS(=O)(=O)c1ccc(-c2nc(NCc3ccc(C(F)(F)F)cc3)cc(C(F)(F)F)n2)cc1 | – | – | > 52 | –
CS(=O)(=O)c1ccc(-c2nc(Cl)cc(NCc3ccc(F)cc3)n2)cc1 | – | – | 2970 | –
CS(=O)(=O)c1ccc(-c2nc(Cl)cc(NCc3cccs3)n2)cc1 | – | – | > 81300 | –
CC(C)c1cc(NCc2ccccc2)nc(-c2ccc(S(C)(=O)=O)cc2)n1 | – | – | > 396 | –
Cc1cccc(CNc2cc(C(F)(F)F)nc(-c3ccc(S(C)(=O)=O)cc3)n2)c1 | – | – | > 52 | –
CS(=O)(=O)c1ccc(-c2nc(SCc3cccs3)cc(C(F)(F)F)n2)cc1 | 8.39 | – | > 24400 | –
CS(=O)(=O)c1ccc(-c2nc(NCC3CCCCC3)cc(C(F)(F)F)n2)cc1 | – | > 3610 | > 68 | –
CS(=O)(=O)c1ccc(-c2nc(NCCc3cccs3)cc(C(F)(F)F)n2)cc1 | – | – | > 83 | –

Second part, led by results:

pIC50 [2] | Ratio IC50 (Homo sapiens [4]) | SMILES | Ratio IC50 (Homo sapiens [1]) | pIC50 [3]
< 5.00 | – | CC(C)c1ccc(CNc2cc(C(F)(F)F)nc(-c3ccc(S(C)(=O)=O)cc3)n2)cc1 | > 1 | –
7.99 | – | CC(C)Nc1cc(NCc2cccs2)nc(-c2ccc(S(C)(=O)=O)cc2)n1 | > 9720 | –
< 5.00 | – | CS(=O)(=O)c1ccc(-c2nc(Nc3ccccc3)cc(C(F)(F)F)n2)cc1 | > 1 | –
8.29 | – | COc1cc(NCc2ccccc2)nc(-c2ccc(S(C)(=O)=O)cc2)n1 | > 19600 | –
< 5.00 | > 1 | CS(=O)(=O)c1ccc(-c2nc(NCC3CCCC3)cc(C(F)(F)F)n2)cc1 | > 1 | < 5.00
6.80 | 3530 | NS(=O)(=O)c1ccc(-c2nc(NCc3cccs3)cc(C(F)(F)F)n2)cc1 | > 634 | 7.65
7.28 | 1390 | NS(=O)(=O)c1ccc(-c2nc(NCc3ccsc3)cc(C(F)(F)F)n2)cc1 | > 193 | 7.14
7.11 | – | CS(=O)(=O)c1ccc(-c2nc(NCc3ccc(F)cc3)cc(C(F)(F)F)n2)cc1 | 1300 | –
6.52 | – | CS(=O)(=O)c1ccc(-c2nc(NCc3cc(F)cc(F)c3)cc(C(F)(F)F)n2)cc1 | > 333 | –
6.56 | – | CC(C)Nc1cc(NCc2ccccc2)nc(-c2ccc(S(C)(=O)=O)cc2)n1 | > 365 | –
7.62 | – | CCSc1cc(NCc2ccccc2)nc(-c2ccc(S(C)(=O)=O)cc2)n1 | 414 | –
7.74 | – | Cc1c(NCc2ccccc2)nc(-c2ccc(S(C)(=O)=O)cc2)nc1C(F)(F)F | > 556 | –
7.04 | – | CCS(=O)(=O)c1cc(NCc2ccccc2)nc(-c2ccc(S(C)(=O)=O)cc2)n1 | > 110 | –
8.92 | – | CCSc1cc(NCc2cccs2)nc(-c2ccc(S(C)(=O)=O)cc2)n1 | > 8400 | –
< 5.00 | – | CS(=O)(=O)c1ccc(-c2nccc(NCc3ccccc3)n2)cc1 | > 1 | –
< 5.00 | – | CS(=O)(=O)Oc1ccc(CNc2cc(C(F)(F)F)nc(-c3ccc(S(C)(=O)=O)cc3)n2)cc1 | > 1 | –
7.42 | – | Cc1c(NCc2cccs2)nc(-c2ccc(S(C)(=O)=O)cc2)nc1C(F)(F)F | > 78 | –

pIC50 [2] | Ratio IC50 (Homo sapiens [4]) | SMILES | Ratio IC50 (Homo sapiens [1]) | pIC50 [3]
6.56 | – | COc1ccc(CNc2cc(C(F)(F)F)nc(-c3ccc(S(C)(=O)=O)cc3)n2)cc1 | > 367 | –
7.65 | – | Cc1c(NCc2ccc(F)cc2)nc(-c2ccc(S(C)(=O)=O)cc2)nc1C(F)(F)F | > 447 | –
< 5.00 | – | CCN(Cc1ccccc1)c1cc(C(F)(F)F)nc(-c2ccc(S(C)(=O)=O)cc2)n1 | > 1 | –
< 5.00 | – | CS(=O)(=O)c1ccc(-c2nc(C(F)(F)F)cc(S(=O)(=O)Cc3ccccc3)n2)cc1 | > 1 | –
8.04 | – | CS(=O)(=O)c1ccc(-c2nccc(NCc3cccs3)n2)cc1 | > 10900 | –
7.44 | – | Cc1ccc(CNc2nc(-c3ccc(S(C)(=O)=O)cc3)nc(Cl)c2C)cc1 | > 2730 | –
< 5.00 | – | CS(=O)(=O)c1ccc(-c2nc(NCc3ccc(OC(F)(F)F)cc3)cc(C(F)(F)F)n2)cc1 | > 1 | –
6.28 | – | Cc1ccsc1CNc1cc(C(F)(F)F)nc(-c2ccc(S(C)(=O)=O)cc2)n1 | 189 | –
6.92 | – | CCc1c(NCc2cccs2)nc(-c2ccc(S(C)(=O)=O)cc2)nc1C(F)(F)F | > 83 | –
7.93 | – | Cc1ccc(CNc2cc(C(F)(F)F)nc(-c3ccc(S(C)(=O)=O)cc3)n2)s1 | > 852 | –
7.35 | – | Cc1ccc(CNc2cc(Cl)nc(-c3ccc(S(C)(=O)=O)cc3)n2)cc1 | > 2250 | –
< 5.00 | – | CS(=O)(=O)c1ccc(-c2nc([S+]([O-])Cc3ccccc3)cc(C(F)(F)F)n2)cc1 (stereo not drawn) | > 1 | –
< 5.00 | – | CC(C)c1ccc(Nc2cc(C(F)(F)F)nc(-c3ccc(S(C)(=O)=O)cc3)n2)cc1 | > 1 | –
< 5.00 | – | COCOc1ccc(CNc2cc(C(F)(F)F)nc(-c3ccc(S(C)(=O)=O)cc3)n2)cc1 | > 1 | –
6.28 | – | CC(Nc1cc(C(F)(F)F)nc(-c2ccc(S(C)(=O)=O)cc2)n1)c1ccccc1 (stereo not drawn) | 74 | –
7.32 | – | Cc1ccc(CNc2cc(C(F)(F)F)nc(-c3ccc(S(C)(=O)=O)cc3)n2)cc1 | > 2060 | –
5.40 | – | Cn1cccc1CCNc1cc(C(F)(F)F)nc(-c2ccc(S(C)(=O)=O)cc2)n1 | > 25 | –
